In US20150017185A1, “METHOD TO IMPROVE THE IMMUNE FUNCTION OF T CELLS” (UCL BUSINESS PLC, priority 2011, published 2015):

Legend:
[1] = tested on: CD8+ CD45RA/CD27 T cell subsets; test: Telomerase activity (TRAP assay) with PDL-1/2 blockade and p38 inhibitor; assay type: cell-based, human; settings: 4 days anti-CD3 and irradiated autologous APCs
Excerpt: It was next investigated whether p38 or PD-1 signalling were involved in the decreased telomerase activity in EMRA CD8^+ T cells. […] Once again, CD8^+ T cell subsets were stimulated with anti-CD3 and irradiated autologous APCs in the presence of both inhibitors separately or together as in FIG. 4. […] The blockade of PD-1 signalling had no effect on telomerase activity in any of the subsets.
Purified CD8^+ T cell populations (2×10^5 cells) were snap-frozen after stimulation for 4 days with 0.5 μg/ml plate coated anti-CD3 (OKT3) and irradiated APCs. Telomerase activity was determined using the telomeric repeat amplification protocol (TRAP; TRAPeze telomerase detection kit; Chemicon) according to the protocol provided by the manufacturer. The absolute numbers of CD8^+ T cells were enumerated using trypan blue (Sigma). The TRAP assay was performed with samples adjusted to 500 Ki67^+ T cells per reaction to control for the different extents of proliferation in the different subsets after activation.
Signalling through PD-1 on purified total CD8^+ and CD27/CD45RA defined CD8^+ subsets was blocked by adding 10 μg/ml each of anti-PD-L1 (29E.2A3.C6) and anti-PD-L2 (24F.10C12.G12), or 10 μg/ml each of IgG2a (Mg2a-53) or IgG2b (MPC-11) isotype control antibodies (Abcam) at the start of the 4 day stimulation period with anti-CD3 (purified OKT3, 0.5 μg/ml) and irradiated APCs. […]

[2] = tested on: CD8+ CD45RA/CD27 T cell subsets; test: Proliferation assay (Ki67 staining) with PDL-1/2 blockade and p38 inhibitor; assay type: cell-based, human; settings: CD8+ T cells at all four stages of differentiation (N, CM, EM, EMRA); 4 days anti-CD3 and irradiated autologous APCs; 10 μg/ml PDL1/2 blocking antibodies, 500 nM BIRB796; 4 donors
Method: It was investigated whether either PD-1 or p38 signalling pathways contributed to the decreased proliferative activity of EMRA CD8^+ T cells. The four CD45RA/CD27 defined T cell subsets were isolated and then stimulated with anti-CD3 antibody and irradiated autologous APCs in the presence of either 10 μg/ml PDL1/2 blocking antibodies, 500 nM BIRB796 or both inhibitors together. Proliferative activity was determined by staining with Ki67 antibody. Representative histograms for the EMRA subset with and without the inhibitors is shown in FIG. 4A, while pooled results from all four subsets from 4 separate donors is shown in FIG. 4B.
PBMCs or sorted CD8^+ T cells were stimulated with 0.5 μg/ml plate coated anti-CD3 (OKT3) for 4 days and proliferation was assessed by staining for the nuclear antigen Ki67 that is expressed by cells at all stages of the cell cycle.
Signalling through PD-1 on purified total CD8^+ and CD27/CD45RA defined CD8^+ subsets was blocked by adding 10 μg/ml each of anti-PD-L1 (29E.2A3.C6) and anti-PD-L2 (24F.10C12.G12), or 10 μg/ml each of IgG2a (Mg2a-53) or IgG2b (MPC-11) isotype control antibodies (Abcam) at the start of the 4 day stimulation period with anti-CD3 (purified OKT3, 0.5 μg/ml) and irradiated APCs. The p38 inhibitor BIRB796 was added to the 4 day cultures at a final concentration of 500 nM and 0.1% DMSO was used as control.

## Cc1ccc(-n2nc(C(C)(C)C)cc2NC(=O)Nc2ccc(OCCN3CCOCC3)c3ccccc23)cc1 [BIRB796]
[1]; CD45RA+CD27− (EMRA) CD8+ population, 500 nM BIRB796, 10 μg/ml anti-PDL1/2, p<0.05, 4 donors
  telomerase activity: significant increase
[1]; N, CM and EM CD8+ T cells, p38 signalling blocked (500 nM BIRB796), results not significant
  telomerase activity: trend towards increased telomerase activity
[2]
  proliferative activity (Ki67 staining): increased proliferative activity
